Columns and labels:
[1] = tested on: APPsw+/− mice; assay: Resting CBF by laser-doppler flowmetry, acute FPS2 treatment of APPsw+/− mice; assay type: in vivo; conditions: 1 mg/kg intravenous bolus, 7-9 months old mice
Procedure: Cerebral blood flow changes expressed as a percentage of baseline recorded over a 90 min period in mice administered FPS2 (filled triangle) or vehicle (filled square). FPS2 (1 mg/kg) was administered intravenously (arrow) as a bolus in 7-9 months old mice. Values are means±s.e.m, n=3 per group.
(§1) APPsw^+/− mice were treated with FPS2 (1 mg/kg) or with vehicle daily by intraperitoneal injection for two months starting at 8 months old. At the end of the treatment period functional changes in cerebral blood flow (CBF) to brain activation, and memory tests were determined. Brain and plasma Aβ levels were also determined in FPS2 and vehicle treated mice. […]
Compounds were synthesized in parallel using semiautomated chemical reactions. […] Purity was assessed by reverse-phase gradient HPLC. […] After two months of treatment, (i) the cerebral blood flow response to brain activation (whisker stimulation) was measured and (ii) behavioral tests including operant learning, novel object location (NOL), and novel object recognition (NOR) were performed. After these functional tests, the mice were sacrificed and their brains analyzed for Aβ40, Aβ42, and amyloid levels. • CBF response to brain activation. The CBF response to vibrissal stimulation in anesthetized APPsw^+/− mice was measured by using laser-doppler flowmetry (Transonic Systems, BLF 21 D). […]

[2] = tested on: APPsw+/− mice; assay: CBF response to brain activation (whisker stimulation), chronic FPS2 treatment of APPsw+/− mice; assay type: in vivo; conditions: 1 mg/kg per day i.p. for two months from 8 months of age
Procedure: (A) Percent increase in cerebral blood flow (CBF) in response to brain activation in mice treated with vehicle (open bar) or FPS2 (closed bar). (B-C) novel object location (B) and novel object recognition (C) expressed as percent exploratory preference in APPsw^+/− mice treated with vehicle (open bar) or FPS2 (closed bar). FPS2 (1 mg/kg per day) was intraperitoneally administered for two months beginning at the age of 8 months old mice. Values are means±s.e.m, n=5-6 per group.
as §1
Compounds were synthesized in parallel using semiautomated chemical reactions. […] Purity was assessed by reverse-phase gradient HPLC. […] After two months of treatment, (i) the cerebral blood flow response to brain activation (whisker stimulation) was measured and (ii) behavioral tests including operant learning, novel object location (NOL), and novel object recognition (NOR) were performed. After these functional tests, the mice were sacrificed and their brains analyzed for Aβ40, Aβ42, and amyloid levels. • CBF response to brain activation. […]

[3] = tested on: RAGE-transfected CHO cells; assay: NF-κB activation (translocation) in RAGE-transfected CHO cells; assay type: cell-based; conditions: 1 μM Aβ40; FPS2 at 50 nM or 500 nM

## CC(CC(=O)NCCCN(C(=O)c1cc([N+](=O)[O-])cc([N+](=O)[O-])c1)c1ccccc1)CC(C)(C)C (stereo not shown) [FPS2, 3,5-dinitro-N-phenyl-N-[3-[(3,5,5-trimethyl-1-oxohexyl)amino]propyl]-(9Cl)-benzamide]
[1]
  time of peak of resting CBF increase: 25 to 30 min
  transient increase of resting CBF: about 35%
[2]
  increase of CBF during brain activation compared to vehicle: about 50%
[3]
  NF-κB activation: inhibited

From patent US8778985B2, “Inhibiting amyloid-beta peptide/rage interaction at the blood-brain barrier” (The University of Rochester, priority 2006, dated 2014)
